The term EC50 denotes the concentration that produces a half-maximal response.

The values below come from patent US20250066323A1, “INHIBITORS OF HUMAN RESPIRATORY SYNCYTIAL VIRUS AND METAPNEUMOVIRUS” (priority 2023, published 2025).

The first assay has as its system RSV-A2-GFP. The assay is described as follows: RSV-A2-GFP viral replication assay. The format is cell-based, Human Respiratory Syncytial Virus. The conditions noted are these: human respiratory syncytial virus, Calu-1, 96 h, read-out: RSV EC50, Calu-1 cells, RSV-A2-GFP MOI=1.2, 96 hrs, GFP-expressing cells counted. From the text:
GFP sequence was derived from pJTI™ R4 Dest CMV N-EmGFP pA Vector (Invitrogen) and was cloned into the intergenic sequence between wild-type RSV-A2 P and M genes using standard recombineering techniques. Recombinant RSV-A2-GFP was propagated in Hep2 cells (human cells contains HeLa marker chromosomes and were derived via HeLa contamination, ATCC CCL-23) with infection Multiplicity of Infection (MOI) of 0.1. Virus was harvested 3 days after infection by collecting all culture material and freeze-thaw the viral culture in liquid nitrogen for at least 5 times. To generating virus working stocks, thaw frozen samples in 37° C. water bath then centrifuge at 218 g for 15 min at 4° C. Add 1/10 of 10×SPG (Biological Industries 06-3061-01-5A), mix, aliquot supernatant, and quick-freeze in liquid nitrogen then transfer to −80° C. freezer for storage. Virus titer was determined by automated plaque assay in HEp-2 cells following methods described previously (Wen Z. et al.; J Virol Methods. 2019 January; 263:88-95).
Calu-1 cells (human lung epidermoid carcinoma, ATCC HTB-54) assay ready freezedown (ARF generation described separately) were used in assays. Compound plates were prepared by dispensing compounds dissolved in DMSO into wells of 384 well coming 3985 polystyrene flat clear bottom optical imaging microplates (202.5 nL/well) using an ECHO acoustic dispenser. Each compound was tested in a 10-point serial 3-fold dilution (typical final concentrations: 403 nM-0.02 nM and 40.3 nM-0.002 nM). […] To set up the assay, thaw ARF vial(s) in 37° C. water bath until small ice crystal remain and resuspend into assay media (DMEM containing 2% FBS, 100 U/ml Penicillin-Streptomycin). Count cells using default parameters on ViCell and dilute to 20,000 cells per ml in assay media. Add RSV GFP to cells at 24,000 pfu/ml (MOI=1.2). Mix by gentle inversion. 10 μl/well of 100% DMSO was dispensed to CellTiter-Glo (CTG) assay Max_E controls wells. Dispense cells at 50 μl/well using Bravo and 50 μl filtered tips into compound plates. Cover plates with MicroClime lids loaded with 7.5 ml of assay media to minimize evaporation. Incubate at 37 degrees C. and 5% CO2 for 96 hrs. Following incubation, distinct, GFP-expressing cells are counted using an Acumen imaging system with appropriate settings. A same-well CTG assay is performed by adding 10 μl/well reconstituted CellTiter-Glo reagent (Promega G7573) and reading plates on PerkinElmer Envision according to manufacturer's instructions. Raw data were loaded and analyzed in ActivityBase. Antiviral IC50 and cytotoxicity CC50 values were determined using a 4 parameter logistic fit based on the Levenberg-Marquardt algorithm. Model: 205-4 Parameter Logistic.
Calu-1 cells were purchased from ATCC (Cat #HTB-54) and are expanded in growth media (DMEM containing 10% FBS, 100 U/ml Penicillin-Streptomycin). To make ARF, remove and discard cell culture media, briefly rinse the cell layer with PBS to remove all traces of serum. Add 2.5 ml of TrypLE Express solution and incubate until cells dislodge, then add growth media and resuspend the cells by gentle pipetting. Count cells for concentration and determine viability using a ViCell. Centrifuge at RT, 300 g for 5 min to pellet cells. Gently aspirate supernatant, flick pellet to loosen cells. Resuspend cells in an appropriate volume of freezing medium (DMEM containing 10% DMSO, 10% FBS, 100 U/ml Penicillin-Streptomycin) to achieve 5×10^6/ml. Transfer 1 ml of cell suspension to freezing vials. Put vials to CoolCell cryopreservation container and place CoolCell container upright in a −80° C. freezer overnight before transferring vials to liquid nitrogen vapor for storage.
As for `Cn1nc(-n2cccn2)cc1C(=O)NCC(O)(c1cc(C(C)(C)N)cc(-c2ccc(F)cc2F)n1)C(F)(F)F` (single isomer, unassigned) [Example 44-A, N-(2-(4-(2-aminopropan-2-yl)-6-(2,4-difluorophenyl)pyridin-2-yl)-3,3,3-trifluoro-2-hydroxypropyl)-1′-methyl-1′H-[1,3′-bipyrazole]-5′-carboxamide], the EC50 is less than 10 nM. The same measure, in the same setting: in the case of `Cn1nc(-n2cccn2)cc1C(=O)NCC(C)(O)c1cc(C(C)(C)N)cc(Cc2ccc(F)cc2)n1` (single isomer, unassigned) [Example 40-B, N-(2-(4-(2-aminopropan-2-yl)-6-(4-fluorobenzyl)pyridin-2-yl)-2-hydroxypropyl)-1′-methyl-1′H-[1,3′-bipyrazole]-5′-carboxamide] it was less than 10 nM; in that of `Cn1nc(-n2cccn2)cc1C(=O)NCC(C)(O)c1cc(C(C)(C)N)cc(-c2ccc(Cl)c(F)c2)n1` (single isomer, unassigned) [Example 39-B, N-(2-(4-(2-aminopropan-2-yl)-6-(4-chloro-3-fluorophenyl)pyridin-2-yl)-2-hydroxypropyl)-1′-methyl-1′H-[1,3′-bipyrazole]-5′-carboxamide], less than 10 nM; in that of `Cn1nc(-n2cccn2)cc1C(=O)NCC(O)(c1cc(C(C)(C)N)cc(-c2ccc(F)c(F)c2)n1)C(F)(F)F` (single isomer, unassigned) [Example 43-A, N-(2-(4-(2-aminopropan-2-yl)-6-(3,4-difluorophenyl)pyridin-2-yl)-3,3,3-trifluoro-2-hydroxypropyl)-1′-methyl-1′H-[1,3′-bipyrazole]-5′-carboxamide], less than 10 nM. On the same count and under the same terms, as for `Cn1nc(-n2cccn2)cc1C(=O)NCC(C)(O)c1cc(C(C)(C)N)cc(-c2ccc(F)c(F)c2)n1` (single isomer, unassigned) [Example 38-B, N-(2-(4-(2-aminopropan-2-yl)-6-(3,4-difluorophenyl)pyridin-2-yl)-2-hydroxypropyl)-1′-methyl-1′H-[1,3′-bipyrazole]-5′-carboxamide], the figure is less than 10 nM. The same measure, in the same setting: as for `Cn1nc(-n2cccn2)cc1C(=O)NCC(O)(c1cc(C(C)(C)N)cc(-c2ccc(C(F)F)cc2)n1)C(F)(F)F` (single isomer, unassigned) [Example 41-A, N-(2-(4-(2-aminopropan-2-yl)-6-(4-(difluoromethyl)phenyl)pyridin-2-yl)-3,3,3-trifluoro-2-hydroxypropyl)-1′-methyl-1′H-[1,3′-bipyrazole]-5′-carboxamide], the figure is less than 10 nM; as for `Cn1nc(-n2cccn2)cc1C(=O)NCC(O)(c1cc(C(C)(C)N)cc(-c2ccc(C(F)(F)F)cc2)n1)C(F)(F)F` (single isomer, unassigned) [Example 42-A, N-(2-(4-(2-aminopropan-2-yl)-6-(4-(trifluoromethyl)phenyl)pyridin-2-yl)-3,3,3-trifluoro-2-hydroxypropyl)-1′-methyl-1′H-[1,3′-bipyrazole]-5′-carboxamide], less than 10 nM; as for `Cn1nc(-c2cscn2)cc1C(=O)NCC(O)(c1cc2c(c(-c3ccc(F)cc3)n1)OCC2(C)C(N)=O)C(F)(F)F` (single isomer, unassigned) [Example 30-B, 7-(4-fluorophenyl)-3-methyl-5-(1,1,1-trifluoro-2-hydroxy-3-(1-methyl-3-(thiazol-4-yl)-1H-pyrazole-5-carboxamido)propan-2-yl)-2,3-dihydrofuro[2,3-c]pyridine-3-carboxamide], less than 10 nM.

As to `Cn1nc(-n2cccn2)cc1C(=O)NCC(O)(c1cc(C(C)(C)N)cc(-c2ccc(F)cc2)n1)C1CC1` (single isomer, unassigned) [Example 35-B, N-(2-(4-(2-aminopropan-2-yl)-6-(4-fluorophenyl)pyridin-2-yl)-2-cyclopropyl-2-hydroxyethyl)-1′-methyl-1′H-[1,3′-bipyrazole]-5′-carboxamide], the 50% effective concentration (EC50) is less than 10 nM. Same read-out and setting: as for `Cc1cc(F)ccc1-c1cc(C(C)(C)N)cc(C(O)(CNC(=O)c2cc(-n3cccn3)nn2C)C(F)(F)F)n1` (single isomer, unassigned) [Example 45-A, N-(2-(4-(2-aminopropan-2-yl)-6-(4-fluoro-2-methylphenyl)pyridin-2-yl)-3,3,3-trifluoro-2-hydroxypropyl)-1′-methyl-1′H-[1,3′-bipyrazole]-5′-carboxamide], the figure is less than 10 nM; as for `Cn1nc(-n2cccn2)cc1C(=O)NCC(C)(O)c1cc(C(C)(C)N)cc(-c2ccc(C(F)(F)F)cc2)n1` (single isomer, unassigned) [Example 37-B, N-(2-(4-(2-aminopropan-2-yl)-6-(4-(trifluoromethyl)phenyl)pyridin-2-yl)-2-hydroxypropyl)-1′-methyl-1′H-[1,3′-bipyrazole]-5′-carboxamide], less than 10 nM.

The same assay, now with this note: read-out: RSV EC50; Calu-1 cells, RSV-A2-GFP MOI=1.2, 96 hrs, GFP-expressing cells counted.
Take `Cn1nc(-n2cccn2)cc1C(=O)NCC(C)(O)c1cc2c(c(-c3ccc(F)cc3)n1)OCC2(C)C(N)=O` (single isomer, unassigned) [Example 29-C, 7-(4-fluorophenyl)-5-(2-hydroxy-1-(1′-methyl-1′H-[1,3′-bipyrazole]-5′-carboxamido)propan-2-yl)-3-methyl-2,3-dihydrofuro[2,3-c]pyridine-3-carboxamide]: the EC50 is less than 10 nM.

Take `Cn1nc(-n2cccn2)cc1C(=O)NCC(C)(O)c1cc2c(c(-c3ccc(F)cc3)n1)OCC2(C)C(N)=O` (single isomer, unassigned) [Example 29-D, 7-(4-fluorophenyl)-5-(2-hydroxy-1-(1′-methyl-1′H-[1,3′-bipyrazole]-5′-carboxamido)propan-2-yl)-3-methyl-2,3-dihydrofuro[2,3-c]pyridine-3-carboxamide]: the EC50 fell in the range of 10 to 100 nM. On the same count and under the same terms, in the case of `Cn1nc(-c2cscn2)cc1C(=O)NCC(C)(O)c1cc(C(C)(C)O)cc(-c2ccc(F)cc2)n1` (single isomer, unassigned) [Example 32-B, N-(2-(6-(4-fluorophenyl)-4-(2-hydroxypropan-2-yl)pyridin-2-yl)-2-hydroxypropyl)-1-methyl-3-(thiazol-4-yl)-1H-pyrazole-5-carboxamide] it was less than 10 nM; in that of `CC(N)C(C)(C)c1cc(-c2ccc(F)cc2)nc(C(C)(O)CNC(=O)c2cc(-n3cccn3)nn2C)c1` (single isomer, unassigned) [Example 33-C, N-(2-(4-(3-amino-2-methylbutan-2-yl)-6-(4-fluorophenyl)pyridin-2-yl)-2-hydroxypropyl)-1′-methyl-1′H-[1,3′-bipyrazole]-5′-carboxamide], less than 10 nM. Still for that read-out and setting: in the case of `CC(N)C(C)(C)c1cc(-c2ccc(F)cc2)nc(C(C)(O)CNC(=O)c2cc(-n3cccn3)nn2C)c1` (single isomer, unassigned) [Example 33-D, N-(2-(4-(3-amino-2-methylbutan-2-yl)-6-(4-fluorophenyl)pyridin-2-yl)-2-hydroxypropyl)-1′-methyl-1′H-[1,3′-bipyrazole]-5′-carboxamide] it was less than 10 nM; in that of `Cn1nc(-n2cccn2)cc1C(=O)NCC(O)c1cc(C(C)(C)N)cc(-c2ccc(F)cc2)n1` (single isomer, unassigned) [Example 34-B, N-(2-(4-(2-aminopropan-2-yl)-6-(4-fluorophenyl)pyridin-2-yl)-2-hydroxyethyl)-1′-methyl-1′H-[1,3′-bipyrazole]-5′-carboxamide], greater than 100 nM.

Turning to `Cn1nc(-n2cccn2)cc1C(=O)NCC(C)(O)c1cc2c(c(-c3ccc(F)cc3)n1)OCC2(C)C(N)=O` (single isomer, unassigned) [Example 29-B, 7-(4-fluorophenyl)-5-(2-hydroxy-1-(1′-methyl-1′H-[1,3′-bipyrazole]-5′-carboxamido)propan-2-yl)-3-methyl-2,3-dihydrofuro[2,3-c]pyridine-3-carboxamide], the concentration for a half-maximal effect (EC50) was greater than 100 nM.
